The record followed here is patent publication US6949548B2, “Combination therapy for the treatment of heart failure” (Orion Corporation, priority 2001, dated 2005).

Molecules are shown by their SMILES.

This experiment deals with heart failure patients. The experiment can be described thus: Effect of the combination on the mortality of heart failure patients. In kind it is in vivo, human. The protocol: Effect of the Combination on the Mortality of Heart Failure Patients
A 6-hour infusion of levosimendan using a bolus of 6, 12 or 24 μg/kg and subsequent infusion of 0.1, 0.2 or 0.4 μg/kg/min was given to heart failure patients with or without concomitant use of a beta-blocker. The 72-hour, 14-day and 180 day mortality was measured. It can be seen that the combination provided synergistic reduction in the mortality of the heart failure patients.

[1] abbreviates: LS 6 + 0.1 (bolus 6 μg/kg, infusion 0.1 μg/kg/min, 6-hour), did not receive beta-blocker, N = 60.
Where [2] appears, read: LS 6 + 0.1 (bolus 6 μg/kg, infusion 0.1 μg/kg/min, 6-hour), received beta-blocker, N = 43.
The mark [3] stands for this setting: LS 12 + 0.2 (bolus 12 μg/kg, infusion 0.2 μg/kg/min, 6-hour), did not receive beta-blocker, N = 62.
[4] abbreviates: LS 12 + 0.2 (bolus 12 μg/kg, infusion 0.2 μg/kg/min, 6-hour), received beta-blocker, N = 38.
Setting [5] is: LS 24 + 0.2 (bolus 24 μg/kg, infusion 0.2 μg/kg/min, 6-hour), did not receive beta-blocker, N = 67.
Where [6] appears, read: LS 24 + 0.2 (bolus 24 μg/kg, infusion 0.2 μg/kg/min, 6-hour), received beta-blocker, N = 32.
Setting [7] is: LS 24 + 0.4 (bolus 24 μg/kg, infusion 0.4 μg/kg/min, 6-hour), did not receive beta-blocker, N = 57.
Where [8] appears, read: LS 24 + 0.4 (bolus 24 μg/kg, infusion 0.4 μg/kg/min, 6-hour), received beta-blocker, N = 42.

In the case of `CC1CC(=O)NN=C1c1ccc(NN=C(C#N)C#N)cc1` (single isomer, unassigned; (-)) [LS, (−)-enantiomer of [[4-(1,4,5,6-tetrahydro-4-methyl-6-oxo-3-pyridazinyl)phenyl]hydrazono]propanedinitrile], the “14-day mortality, %” value by setting is: under setting [1], 15.0%; under setting [2], 9.3%; under setting [3], 8.1%; under setting [4], 10.5%; under setting [5], 14.9%; under setting [6], 9.4%. The “14-day mortality, %” value came to 15.8% under setting [7] and 4.8% under setting [8]. Besides, the “72-hour mortality, %” value by setting is: under setting [1], 8.3%; under setting [2], 2.3%; under setting [3], 1.6%; under setting [4], 5.3%; under setting [5], 7.5%; under setting [6], 0.0%. For the same molecule, the “72-hour mortality, %” value reads like this: under setting [7], 8.8%; under setting [8], 0.0%. Besides, the “180-day mortality, %” value is, setting by setting: under setting [1], 50.0%; under setting [2], 30.2%; under setting [3], 40.3%; under setting [4], 26.3%; under setting [5], 46.3%; under setting [6], 37.5%. The “180-day mortality, %” value reads like this: under setting [7], 45.6%; under setting [8], 23.8%.
